“Also recorded” adds a separate entry of the source. Where a name gives a salt, the structure may show the parent alone. Read-outs that look alike come from different tables or passages of the source.
Columns and labels:
Format in all cases: physicochemical
[1] = Static storage at 40° C./75% RH, XRPD and HPLC post storage; details: 7 days
[2] = Drying / standing under ambient conditions, XRPD; details: for XRPD (Dry): after drying under ambient conditions overnight
Method: Structure (I) (Sample 28-2, 30 mg, Poorly Crystalline Pattern 3) was wetted with solvent (300 μL, 10 vol) according to Table 30 and put into a shaker at 50° C. for 6 days. The suspensions were isolated using filter cartridges and positive pressure. A XRPD pattern was collected for each sample. […] This characterization is presented and discussed in Examples detailed herein. (see, e.g., FIG. 75)

[3] = Static storage at 40° C./75% RH, XRPD and HPLC post storage; details: for stability to storage at 40° C./75% RH (in words): 40° C./75% RH (elevated temperature and humidity); for XRPD post storage at 40° C./75% RH / HPLC purity post storage at 40° C./75% RH: 7 days
Method: Purity analysis was performed on an Agilent HP1100/Infinity II 1260 series system equipped with a diode array detector and using OpenLAB software. The full method details are provided below:
Poorly Crystalline Structure (I) (from Lot A, Free Form Pattern 1, 30 mg) was dissolved in 50 volumes of THF:Water 9:1 at 60° C. in 13 vials, stirring at 500 RPM (small amount of debris present). The solutions were then treated with 1.1 molar equivalents (90/180 μL) of selected counter-ions (Table 7). The resulting solutions were then cooled down to 5° C. at 0.1° C./min and were held at this temperature for 2 days. The suspensions were filtered and dried under suction for 20 min. The gummed sample was left with the cap off to promote crystallization. All solids obtained were initially analyzed by XRPD and stored in glass HPLC vials for subsequent analysis.
Any solids obtained were analyzed by XRPD, ^1H NMR, HPLC, TGA, DSC, XRPD post storage at 40° C./75% RH after 7 days & IC if necessary. Additional microscopy techniques (PLM & HSM) were used to complement the above analysis where appropriate.

[4] = Initial solubility testing in solvents; details: organic solvent or mixture, thermodynamic from solid
Method: Structure (I) (20 mg) from Lot A (free form Pattern 1) was charged into HPLC vials, treated with solvent, 10 volumes at a time, until the material fully dissolved or a maximum of 50 volumes had been added. Once 50 volumes was reached without dissolution, the temperature was increased to 50° C. To each suspension, 1.1 molar equiv. (60 μL) of HCl (1M in THF) was added, stirred for 5 min, and slowly cooled to 5° C. at 0.1° C./min and held at that temperature overnight. All solids were then isolated by filtration through PTFE frits and dried under suction for 20 min. The samples were analyzed by XRPD.

## Cc1cc(Nc2cc(N)ncn2)c(=O)n2c1C(=O)NC21CCC2(CC2)CC1 [Pattern 8]
[1]; listed as 30-15
  XRPD post storage at 40° C./75% RH: Pattern 3
[2]
  XRPD (Dry): unstable to drying under ambient conditions

## Cc1cc(Nc2cc(N)ncn2)c(=O)n2c1C(=O)NC21CCC2(CC2)CC1 [HBr Pattern 1]
[1]; listed as 9-1
  XRPD post storage at 40° C./75% RH: XRPD-HBr Pattern 1
[3]
  change of chemical purity on storage at 40° C./75% RH (in words): slight uplift in purity
  XRPD post storage at 40° C./75% RH: remained HBr Pattern 1
[3]; listed as 9-1
  stability to storage at 40° C./75% RH (in words): behavior but not stable to storage
  HPLC purity post storage at 40° C./75% RH: 98.7% purity

## Cc1cc(Nc2cc(N)ncn2)c(=O)n2c1C(=O)NC21CCC2(CC2)CC1 [Fumarate Pattern 2]
[1]; listed as 22-4
  XRPD post storage at 40° C./75% RH: FUM P2 (additional peaks lost),
[3]
  XRPD post storage at 40° C./75% RH: loss of the additional peaks
[3]; listed as 22-4
  HPLC purity post storage at 40° C./75% RH: 99.2%

## Cc1cc(Nc2cc(N)ncn2)c(=O)n2c1C(=O)NC21CCC2(CC2)CC1 [Pattern 7]
[1]; listed as 30-6
  XRPD post storage at 40° C./75% RH: 7 days: Change in form-Pattern 3
[2]; listed as 30-6
  XRPD (Dry): Pattern 7
[3]; listed as 30-6
  stability to storage at 40° C./75% RH (in words): not stable to static storage

## Cc1cc(Nc2cc(N)ncn2)c(=O)n2c1C(=O)NC21CCC2(CC2)CC1 [Pattern 6]
[1]; listed as 30-4
  XRPD post storage at 40° C./75% RH: convert to Pattern 3; also recorded: form-Pattern 3
[2]; listed as 30-4
  XRPD (Dry): maintained after mild drying; also recorded: Pattern 6

## Cc1cc(Nc2cc(N)ncn2)c(=O)n2c1C(=O)NC21CCC2(CC2)CC1 [Phosphate Pattern 1]
[1]; listed as 9-8
  XRPD post storage at 40° C./75% RH: pattern retained,
[1]; listed as 22-2
  XRPD post storage at 40° C./75% RH: Unchanged
[3]
  stability to storage at 40° C./75% RH (in words): remained stable by XRPD & HPLC
  XRPD post storage at 40° C./75% RH: consistent with PHO Pattern 1
[3]; listed as 9-8
  stability to storage at 40° C./75% RH (in words): data. Form looks stable
  HPLC purity post storage at 40° C./75% RH: 98.5% purity. Phosphate
[3]; listed as 22-2
  HPLC purity post storage at 40° C./75% RH: 99.1%

## Cc1cc(Nc2cc(N)ncn2)c(=O)n2c1C(=O)NC21CCC2(CC2)CC1 [HCl Patterns 1 and 3]
[1]; listed as 9-2
  XRPD post storage at 40° C./75% RH: No change by XRPD
[3]
  stability to storage at 40° C./75% RH (in words): stable to storage
[3]; listed as 9-2
  HPLC purity post storage at 40° C./75% RH: 97.7% purity

## Cc1cc(Nc2cc(N)ncn2)c(=O)n2c1C(=O)NC21CCC2(CC2)CC1 [amorphous material]
[1]; listed as 28-1
  XRPD post storage at 40° C./75% RH: 7 days: Crystallization-Pattern 3 (WD)
[3]
  XRPD post storage at 40° C./75% RH: converted to Free Form Pattern 3

## Cc1cc(Nc2cc(N)ncn2)c(=O)n2c1C(=O)NC21CCC2(CC2)CC1 [Pattern 9]
[2]
  XRPD (Dry): unstable to drying under ambient conditions
[2]; ambient conditions
  form under ambient conditions (XRPD after ambient overnight): unstable at ambient conditions

## Cc1cc(Nc2cc(N)ncn2)c(=O)n2c1C(=O)NC21CCC2(CC2)CC1 [SUL Pattern 1]
[1]; listed as 9-3
  XRPD post storage at 40° C./75% RH: SUL Pattern 1
[3]
  change of chemical purity on storage at 40° C./75% RH (in words): decrease in the observed chemical purity
  stability to storage at 40° C./75% RH (in words): stable to storage
[3]; listed as 9-3
  HPLC purity post storage at 40° C./75% RH: 95.6%
  change of chemical purity on storage at 40° C./75% RH (in words): complex thermal data, loss of purity

## Cc1cc(Nc2cc(N)ncn2)c(=O)n2c1C(=O)NC21CCC2(CC2)CC1 [Tartrate Pattern 1]
[1]; listed as 9-9
  XRPD post storage at 40° C./75% RH: pattern retained.
[3]
  stability to storage at 40° C./75% RH (in words): stable to storage
[3]; listed as 9-9
  HPLC purity post storage at 40° C./75% RH: 98.1% purity. Tartrate

## Cc1cc(Nc2cc(N)ncn2)c(=O)n2c1C(=O)NC21CCC2(CC2)CC1 [HCl Pattern 1]
[1]; listed as 22-1
  XRPD post storage at 40° C./75% RH: Unchanged
[3]; listed as Chloride Pattern 1
  stability to storage at 40° C./75% RH (in words): remained stable by XRPD & HPLC
[3]; listed as 22-1
  HPLC purity post storage at 40° C./75% RH: 99.3%

## Cc1cc(Nc2cc(N)ncn2)c(=O)n2c1C(=O)NC21CCC2(CC2)CC1 [Pattern 8-2]
[4]; 50 °C, 50 vol, 50° C., read-out: solubilization upon heating to 50° C.
  solubility: < 20 mg/mL
[4]; 20 mg in 10 vol of the sample's solvent, read-out: solubilization at 10 vol
  solubility: < 100 mg/mL
[4]; 20 vol of the sample's solvent, read-out: solubilization at 20 vol
  solubility: < 50 mg/mL
[4]; 30 vol of the sample's solvent, read-out: solubilization at 30 vol
  solubility: < 33.3 mg/mL
[4]; 40 vol of the sample's solvent, read-out: solubilization at 40 vol
  solubility: < 25 mg/mL
[4]; 50 vol of the sample's solvent, read-out: solubilization at 50 vol
  solubility: < 20 mg/mL

## Cc1cc(Nc2cc(N)ncn2)c(=O)n2c1C(=O)NC21CCC2(CC2)CC1 [Maleate Pattern 1]
[1]; listed as 9-7
  XRPD post storage at 40° C./75% RH: pattern retained; very
[3]; listed as 9-7
  stability to storage at 40° C./75% RH (in words): data. Form looks stable
  HPLC purity post storage at 40° C./75% RH: 98.8% purity. Maleate
[3]
  XRPD post storage at 40° C./75% RH: consistent with Maleate Pattern 1

Source: patent US20260217712A1, “SOLID STATE FORMS OF MNK INHIBITORS” (4E Therapeutics, Inc., priority 2023, published 2026)
